Reference: US8871288B2, “Aromatic neomenthylamides as flavoring substances” (Symrise AG, priority 2007, dated 2014)

Key:
[1] = Flavor impression of the individual compounds; type: in vivo; conditions: tasting of the compound as such
[2] = cited from earlier work; for sensorial impression: prior art (US 2004/0202760, US 2004/0202619, US 2006/057268, 2006/068071); for effect in the oral cavity: known naturally occurring alkamides
[3] = Panel tasting, green tea drink (Application Example 11); type: in vivo; conditions: 0.004% by weight of a 1% solution in propylene glycol in green tea drink, sterilized at 118° C.
Description: The green tea concentrate is mixed with a 1% solution of a 1:1 mixture of the compounds (3)+(4) in propylene glycol. Afterwards, demineralized water is poured in and the mixture is again thoroughly stirred. Then the product is filtered, packed ready for consumption and sterilized at 118° C.

[4] = Flavor comparison in American beef bouillon base with MSG, panel of trained testers (FIG. 1); type: in vivo; conditions: 5 ppm of 1:1 mixture in American beef bouillon base vs base with 0.05% by weight MSG
Description: This is also shown by the spider diagram which is appended as FIG. 1 and in which an American beef bouillon as a base is compared (i) to a base of the type to which 5 ppm of a 1:1 mixture of benzo[1,3]dioxol-5-carboxylic acid ((1S,2S,5R)-2-isopropyl-5-methylcyclohexyl)amide (3) and benzo[1,3]dioxol-5-carboxylic acid ((1R,2R,5S)-2-isopropyl-5-methylcyclohexyl)amide (4) are added and (ii) to a base of the type to which 0.05% by weight of MSG (sodium glutamate) is added.
The flavor of a 0.5% American beef extract as a base (solid, light line) was compared, based on a tasting performed by a panel of trained testers, with the flavor firstly of a base of this type to which 5 ppm of a mixture of benzo[1,3]dioxol-5-carboxylic acid ((1S,2S,5R)-2-isopropyl-5-methylcyclohexyl)amide (3) and benzo[1,3]dioxol-5-carboxylic acid ((1R,2R,5S)-2-isopropyl-5-methylcyclohexyl)amide (4) were added (solid, dark line), and secondly of a base of this type to which 0.05% by weight of MSG was added (dotted line).
The testers judged the […] of the specified types of flavor in each case by awarding scores on a scale of from 0 (no corresponding flavor) to 6 (very strong corresponding flavor). The average values of the respective scores are shown.

Molecule	flavor impression [1]	sensorial impression [2]	also measured
COC(=O)c1ccc(C(=O)N[C@H]2C[C@H](C)CC[C@H]2C(C)C)cc1 [(1), N-((1S,2S,5R)-2-isopropyl-5-methylcyclohexyl)terephthalic acid methyl ester]	umami flavor without very bitter accompanying notes	–	–
COC(=O)c1ccc(C(=O)N[C@@H]2C[C@@H](C)CC[C@@H]2C(C)C)cc1 [(2), N-((1R,2R,5S)-2-isopropyl-5-methylcyclohexyl)terephthalic acid methyl ester]	umami flavor without very bitter accompanying notes	–	–
CC(C)[C@@H]1CC[C@@H](C)C[C@@H]1NC(=O)c1ccc2c(c1)OCO2 [(3), benzo[1,3]dioxol-5-carboxylic acid ((1S,2S,5R)-2-isopropyl-5-methylcyclohexyl)amide]	very strong umami flavor	–	–
CC(C)[C@H]1CC[C@H](C)C[C@H]1NC(=O)c1ccc2c(c1)OCO2 [(4), benzo[1,3]dioxol-5-carboxylic acid ((1R,2R,5S)-2-isopropyl-5-methylcyclohexyl)amide]	very strong umami flavor	–	–
CC(C)[C@@H]1CC[C@@H](C)C[C@@H]1NC(=O)Cc1ccc2c(c1)OCO2 [(5), 2-benzo[1,3]dioxol-5-yl-N-((1S,2S,5R)-2-isopropyl-5-methylcyclohexyl)acetamide]	in addition to an umami flavor, a slightly salty note	–	–
CC(C)[C@H]1CC[C@H](C)C[C@H]1NC(=O)Cc1ccc2c(c1)OCO2 [(6), 2-benzo[1,3]dioxol-5-yl-N-((1R,2R,5S)-2-isopropyl-5-methylcyclohexyl)acetamide]	in addition to an umami flavor, a slightly salty note	–	–
CC(C)=CCCC(C)=CCNC(=O)C1CC1 [N-3,7-dimethyl-2,6-octadienyl cyclopropylcarboxamide]	–	salt and umami intensifier	–
CC/C=C\CC/C=C/C(=O)NC1CC1 [N-cyclopropyl-E2,Z6-nonadienamide]	–	MSG-like effect	–
CCCCC/C=C\CC/C=C/C(=O)NCC [N-ethyl-E2,Z6-dodecadienamide]	–	MSG-like effect	–
CC/C=C\CC/C=C/C(=O)NCC [N-ethyl-E2,Z6-nonadienamide]	–	MSG-like effect	–
CCCCC/C=C/C=C/C(=O)NCC(C)C [pellitorine]	–	–	effect in the oral cavity [2]: a salivatory and tingling effect, a long-lasting and numbing effect in the oral cavity
C/C=C/C=C\CC/C=C/C(=O)NCC(C)C [spilanthol]	–	–	effect in the oral cavity [2]: a salivatory and tingling effect, a long-lasting and numbing effect in the oral cavity
Benzo[1,3]dioxole-5-carboxylic acid((1S,2S,5R)-2-isopropyl-5-methylcyclohexyl)amide (3)/benzo[1,3]dioxole-5-carboxylic acid((1R,2R,5S)-2-isopropyl-5-methylcyclohexyl)amide (4) [1:1 mixture of the compounds (3)+(4)]	–	–	taste compared to the non-aromatized green tea base [3]: clearly preferable; flavor compared to other umami-tasting compounds and to sodium glutamate (MSG) [4]: clear umami flavor which is very similar to sodium glutamate (MSG)
